Laboratory results taken from ChEMBL document CHEMBL5108030, “Structure activity relationships leading to the identification of the indirect activator of AMPK, R419” (Bioorg Med Chem, 2022).
pEC50, pIC50: −log10 of the molar value. Activity calls are given as the source filed them. No cut-off for these calls is given here.

Experiments:
[1] = target: AMP-activated protein kinase, AMPK; test: Activation of AMPK in human HepG2 cells assessed as increase in ACC phosphorylation at Ser79 incubated for 1 hr; type: cell-based
[2] = target: AMP-activated protein kinase, AMPK; test: Activation of AMPK in human HepG2 cells assessed as reduction in mitochondrial ATP production incubated for 1 hr; type: cell-based
[3] = Microsomal stability in human liver microsomes assessed as half life; type: ADME, Microsome
Cytochrome P450 3A4 [4] = target: T1, Cytochrome P450 3A4 (Homo sapiens, UniProt P08684); test: Inhibition of CYP3A4 (unknown origin) in presence of NADPH; type: ADME
T1 sequence (P08684 whole entry): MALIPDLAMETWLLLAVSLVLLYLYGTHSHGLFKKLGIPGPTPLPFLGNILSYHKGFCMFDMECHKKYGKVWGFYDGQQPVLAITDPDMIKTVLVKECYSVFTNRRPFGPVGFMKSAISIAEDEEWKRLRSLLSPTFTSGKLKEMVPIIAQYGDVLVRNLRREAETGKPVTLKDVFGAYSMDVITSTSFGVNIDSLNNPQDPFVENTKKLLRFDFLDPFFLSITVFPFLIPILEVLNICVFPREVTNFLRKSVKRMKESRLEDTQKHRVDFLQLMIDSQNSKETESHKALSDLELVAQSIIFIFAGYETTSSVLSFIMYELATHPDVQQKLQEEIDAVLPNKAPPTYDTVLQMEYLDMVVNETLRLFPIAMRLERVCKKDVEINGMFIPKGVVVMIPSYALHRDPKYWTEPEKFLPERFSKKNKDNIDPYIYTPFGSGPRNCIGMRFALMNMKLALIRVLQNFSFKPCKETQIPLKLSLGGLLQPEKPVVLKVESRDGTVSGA

Cytochrome P450 3A4 [5] = target: T1, Cytochrome P450 3A4; test: Inhibition of CYP3A4 (unknown origin); type: ADME
hERG (KCNH2) = hERG (KCNH2) (Homo sapiens, UniProt Q12809); test: Inhibition of human ERG at 3 uM; type: toxicity
Sequence of hERG (KCNH2) (Q12809 whole entry): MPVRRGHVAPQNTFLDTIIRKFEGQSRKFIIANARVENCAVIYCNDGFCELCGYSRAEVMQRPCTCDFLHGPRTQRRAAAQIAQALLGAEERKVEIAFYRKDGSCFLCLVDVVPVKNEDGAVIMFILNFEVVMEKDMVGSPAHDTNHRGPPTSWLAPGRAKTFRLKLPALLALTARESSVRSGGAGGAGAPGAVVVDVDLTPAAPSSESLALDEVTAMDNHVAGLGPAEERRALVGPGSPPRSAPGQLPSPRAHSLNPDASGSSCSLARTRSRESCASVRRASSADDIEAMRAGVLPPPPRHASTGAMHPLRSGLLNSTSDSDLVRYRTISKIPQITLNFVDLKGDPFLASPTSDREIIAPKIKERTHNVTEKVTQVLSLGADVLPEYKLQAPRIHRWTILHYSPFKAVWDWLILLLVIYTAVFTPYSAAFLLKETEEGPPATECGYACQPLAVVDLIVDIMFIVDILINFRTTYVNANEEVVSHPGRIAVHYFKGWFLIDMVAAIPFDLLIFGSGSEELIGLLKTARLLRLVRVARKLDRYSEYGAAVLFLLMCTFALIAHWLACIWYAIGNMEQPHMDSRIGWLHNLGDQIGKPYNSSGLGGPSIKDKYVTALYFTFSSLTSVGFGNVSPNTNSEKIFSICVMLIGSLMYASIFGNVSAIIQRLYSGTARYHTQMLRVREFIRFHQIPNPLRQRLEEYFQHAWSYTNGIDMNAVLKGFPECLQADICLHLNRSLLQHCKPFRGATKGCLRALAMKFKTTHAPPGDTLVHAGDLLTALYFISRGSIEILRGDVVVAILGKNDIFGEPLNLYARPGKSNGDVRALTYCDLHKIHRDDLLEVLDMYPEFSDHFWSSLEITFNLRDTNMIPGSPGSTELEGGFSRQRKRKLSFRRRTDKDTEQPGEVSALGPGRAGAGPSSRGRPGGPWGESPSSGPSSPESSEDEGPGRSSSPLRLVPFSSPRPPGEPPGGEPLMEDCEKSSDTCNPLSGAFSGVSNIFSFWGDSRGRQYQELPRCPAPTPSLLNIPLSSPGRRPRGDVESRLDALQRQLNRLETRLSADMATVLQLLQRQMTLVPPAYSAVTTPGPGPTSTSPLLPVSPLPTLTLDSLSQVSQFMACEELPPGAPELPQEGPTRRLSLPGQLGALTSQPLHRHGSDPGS

[6] = Clearance in rat at 1 mg/kg,iv measured upto 10 hrs; type: ADME, organism-based; conditions: in vivo
[7] = Half life in rat at 1 mg/kg,iv measured upto 10 hrs; type: ADME, organism-based; conditions: in vivo
[8] = Volume of distribution at steady state in rat at 1 mg/kg,iv measured upto 10 hrs; type: ADME, organism-based; conditions: in vivo, read-out: Vdss
[9] = AUC in rat at 5 mg/kg,po measured upto 10 hrs; type: ADME, organism-based; parameters: time < 10 hrs, dose 5 mg/kg, route po; conditions: in vivo
[10] = Oral bioavailability in rat at 5 mg/kg measured upto 10 hrs; type: ADME, organism-based; conditions: in vivo
[11] = Drug concentration in diet-induced obesity model of C57BL/6J mouse at 100 mg/kg,po measured after 10 days; type: ADME, organism-based; conditions: in vivo, time 10 day, read-out: Drug uptake
[12] = Drug concentration in diet-induced obesity model of C57BL/6J mouse at 200 mg/kg,po measured after 10 days; type: ADME, organism-based; conditions: in vivo, time 10 day, read-out: Drug uptake
[13] = Drug concentration in high fat diet-induced obesity model of C57BL/6J mouse at 100 mg/kg,po measured after 10 days; type: ADME, organism-based; conditions: in vivo, time 10 day, read-out: Drug uptake
[14] = Drug concentration in C57BL/6J mouse at 5 mg/kg,po measured after 10 days; type: ADME, organism-based; conditions: in vivo, time 10 day, read-out: Drug uptake
[15] = AUC in diet-induced obesity model of C57BL/6J mouse at 100 mg/kg,po measured after 10 days; type: ADME, organism-based; parameters: time 10 day, dose 100 mg/kg, route po; conditions: in vivo, 240 h
[16] = AUC in diet-induced obesity model of C57BL/6J mouse at 200 mg/kg,po measured after 10 days; type: ADME, organism-based; parameters: time 10 day, dose 200 mg/kg, route po; conditions: in vivo, 240 h
[17] = AUC in high fat diet-induced obesity model of C57BL/6J mouse at 100 mg/kg,po measured after 10 days; type: ADME, organism-based; parameters: dose 100 mg/kg, time 10 day, route po; conditions: in vivo, 240 h
[18] = AUC in C57BL/6J mouse at 5 mg/kg,po measured after 10 days; type: ADME, organism-based; parameters: time 10 day, dose 5 mg/kg, route po; conditions: in vivo, 240 h
Mus musculus [19] = test: Hypoglycemic activity in high fat diet-induced obesity mouse model assessed as improvement in glucose tolerance at 200 mg/kg,po for 4 weeks by OGTT; type: functional, organism-based
Mus musculus [20] = test: Hypoglycemic activity in high fat diet-induced obesity mouse model assessed as decrease in AUC blood glucose at 200 mg/kg,po for 4 weeks by OGTT; type: functional, organism-based
A549 = test: Antiproliferative activity against human A549 cells assessed as cell growth inhibition incubated for 48 hrs by DAPI staining assay; type: functional, cell-based; conditions: A549, 48 h
NCI-H1299 = test: Antiproliferative activity against human NCI-H1299 cells assessed as cell growth inhibition incubated for 48 hrs by DAPI staining assay; type: functional, cell-based; conditions: NCI-H1299, 48 h

pEC50 [1]: 7.51
pIC50 [2]: 8.55
half-life [3]: 1.18 h
pIC50 (Cytochrome P450 3A4 [4]): < 5.00
pIC50 (Cytochrome P450 3A4 [5]): < 5.00
clearance [6]: 150 mL/min/kg
half-life [7]: 2.7 h
Vd [8]: 15.1 L/kg
AUC at 10 h [9]: 256 ng·h/mL
bioavailability [10]: 46%
concentration at 240 h [11]: 84 ng/mL
concentration at 240 h [12]: 140 ng/mL
concentration at 240 h [13]: 64 ng/mL
concentration at 240 h [14]: 440 ng/mL
AUC [15]: 1339 ng·h/kg
AUC [16]: 2429 ng·h/kg
AUC [17]: 1283 ng·h/kg
AUC [18]: 937 ng·h/kg
pIC50 (A549): < 4.70
pIC50 (NCI-H1299): < 4.70
SMILES: COc1ccc(C(=O)C2CCN(C(=O)c3ccc(C(=O)NC4CCN(Cc5ccc(C#N)cc5)CC4)cn3)CC2)cc1
inhibition at 3 µM (hERG (KCNH2)): 61%
Activity (Mus musculus [19]): Active
Activity (Mus musculus [20]): Active
